Assay results: patent publication US20190062305A1, “PYRIDYL OR PYRAZINYL COMPOUNDS CARRYING A METHYL-BOUND ALPHA-AMINO ACID AMIDE GROUP” (ABBVIE DEUTSCHLAND GMBH & CO. KG, priority 2015, published 2019)
Structures can show the parent of a compound that is named as a salt.

Experiments:
5-HT2C receptor = biological target: T1, 5-HT2C receptor (Homo sapiens, UniProt P28335); assay: Human 5-HT2C functional assay (beta-arrestin2 recruitment, U2OS_HTR2C_β-Arrestin cells); assay type: cell-based; details: for EC50: beta-arrestin2 recruitment, U2OS_HTR2C_β-Arrestin cells, 1.5 h incubation, read-out: EC50 5-HT2C (potency in functional assay); for Emax / % efficacy: relative efficacy vs response to 10 μM 5-HT or maximal 5-HT effect (100%)
T1 construct: host or cells: U2OS
Method in brief: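 EC50 and relative efficacy came from 4-parameter variable-slope fits, normalised to 10 µM 5-HT or maximal 5-HT response (100%). Luminescent β-galactosidase enzyme-complementation signal was read after 1.5 h compound exposure in U2OS_HTR2C_β-Arrestin cells held in 1% serum medium from the prior day.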

[1] = Metabolic stability in human liver microsomes, unbound intrinsic clearance (Cl int/fu mic); assay type: in vitro ADME; details: 0.5 μM compound, NADPH; for CLint scaled at 0.5 μM: human, liver microsomes, pH 7.4, human liver microsomes 0.25 mg/mL, read-out: Cl int, mic unb. (h) [l/h/kg] (unbound intrinsic clearance, human); for Cl int, mic unb. (h) [l/h/kg] (unbound intrinsic clearance, human): human liver microsomes 0.25 mg/mL
Method in brief: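 Unbound intrinsic clearance is CLint divided by fu mic, with the unbound fraction measured by 4 h HTDialysis at 37 °C of 0.25 mg/ml microsomes spiked with 0.5 µM compound. For CLint, 0.5 µM compound was incubated with 0.25 mg/mL human microsomes and 1.0 mM NADPH (pH 7.4, 37 °C). Substrate loss over 30 min was measured by LC-MS/MS and t1/2 assumed first-order kinetics.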

T1 sequence (P28335 33-458): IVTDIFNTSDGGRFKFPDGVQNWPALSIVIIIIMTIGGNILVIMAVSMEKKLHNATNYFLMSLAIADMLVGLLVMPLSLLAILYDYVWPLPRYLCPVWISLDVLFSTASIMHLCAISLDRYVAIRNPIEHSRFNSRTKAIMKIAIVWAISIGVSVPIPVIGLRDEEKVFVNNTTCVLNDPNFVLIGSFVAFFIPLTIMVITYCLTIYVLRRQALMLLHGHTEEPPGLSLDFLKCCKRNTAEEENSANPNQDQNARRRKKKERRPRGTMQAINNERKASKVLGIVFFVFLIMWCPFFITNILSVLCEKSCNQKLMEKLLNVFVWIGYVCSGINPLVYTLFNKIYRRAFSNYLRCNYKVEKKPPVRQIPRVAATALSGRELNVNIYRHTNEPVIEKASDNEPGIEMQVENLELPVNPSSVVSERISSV
T1 sequence (P32121 whole entry partner): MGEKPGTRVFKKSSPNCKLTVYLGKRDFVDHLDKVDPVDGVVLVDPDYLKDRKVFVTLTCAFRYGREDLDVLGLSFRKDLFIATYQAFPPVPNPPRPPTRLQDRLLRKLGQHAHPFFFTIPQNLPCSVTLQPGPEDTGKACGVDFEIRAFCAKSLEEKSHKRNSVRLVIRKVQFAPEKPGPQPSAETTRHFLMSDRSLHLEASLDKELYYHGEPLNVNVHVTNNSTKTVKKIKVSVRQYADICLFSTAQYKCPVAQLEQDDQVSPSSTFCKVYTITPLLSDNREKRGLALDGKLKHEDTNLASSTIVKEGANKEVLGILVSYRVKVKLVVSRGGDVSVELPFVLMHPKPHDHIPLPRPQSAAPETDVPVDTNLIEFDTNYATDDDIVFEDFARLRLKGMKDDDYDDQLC

Row | SMILES | EC50 (5-HT2C receptor) | Emax (5-HT2C receptor) | CLint scaled at 0.5 μM [1] | Cl int, mic unb. (h) [l/h/kg] (unbound intrinsic clearance, human) [1] | % efficacy (5-HT2C receptor)
1 | COc1nc(C2CCCCC2)c(F)cc1CNC(=O)[C@@H]1CCCN1 [Example 132, (2S)—N-[(6-Cyclohexyl-5-fluoro-2-methoxy-3-pyridyl)methyl]pyrrolidine-2-carboxamide; 2,2,2-trifluoroacetic Acid] | < 20 nM | > 70% | 50 to 500 L/h/kg |  | 
2 | COc1nc(N2CCC(C(F)(F)F)CC2)c(F)cc1CNC(=O)[C@@H]1CCCN1 [Example 133, (2S)—N-[[5-Fluoro-2-methoxy-6-[4-(trifluoromethyl)-1-piperidyl]-3-pyridyl]methyl]pyrrolidine-2-carboxamide; 2,2,2-trifluoroacetic Acid] | < 20 nM | > 70% | 5 to 50 L/h/kg |  | 
3 | COc1nc(N2CCC(F)(F)CC2)c(F)cc1CNC(=O)[C@@H]1CCCN1 [Example 134, (2S)—N-[[6-(4,4-Difluoro-1-piperidyl)-5-fluoro-2-methoxy-3-pyridyl]methyl]-pyrrolidine-2-carboxamide; 2,2,2-trifluoroacetic Acid] | < 20 nM | > 70% | < 5 L/h/kg |  | 
4 | COc1nc(NCC2CC(F)(F)C2)c(F)cc1CNC(=O)[C@@H]1CCCN1 [Example 136, (2S)—N-[[6-[(3,3-Difluorocyclobutyl)methylamino]-5-fluoro-2-methoxy-3-pyridyl]methyl]pyrrolidine-2-carboxamide; 2,2,2-trifluoroacetic Acid] | < 20 nM | > 70% | < 5 L/h/kg |  | 
5 | COc1nc(N(C)CCc2ccccc2)c(F)cc1CNC(=O)[C@@H]1CCCN1 [Example 137, (2S)—N-[[5-Fluoro-2-methoxy-6-[methyl(phenethyl)amino]-3-pyridyl]methyl]-pyrrolidine-2-carboxamide Hydrochloride] | 200 to 1000 nM | > 70% | 50 to 500 L/h/kg |  | 
6 | COc1nc(N2CCc3ccccc32)c(F)cc1CNC(=O)[C@@H]1CCCN1 [Example 138, (2S)—N-[(5-Fluoro-6-indolin-1-yl-2-methoxy-3-pyridyl)methyl]pyrrolidine-2-carboxamide Hydrochloride] | 200 to 1000 nM | > 70% | 5 to 50 L/h/kg |  | 
7 | COc1nc(C2CC2C(F)(F)F)c(F)cc1CNC(=O)[C@@H]1CCCN1 (stereo partly drawn) [Example 139, (2S)—N-[[5-fluoro-2-methoxy-6-[2-(trifluoromethyl)cyclopropyl]-3-pyridyl]methyl]pyrrolidine-2-carboxamide; 2,2,2-trifluoroacetic Acid] | 200 to 1000 nM | 30 to 50% | 5 to 50 L/h/kg |  | 
8 | COc1nc(C2=CCC(C(F)(F)F)CC2)c(F)cc1CNC(=O)[C@@H]1CCCN1 (stereo partly drawn) [Example 140, (2S)—N-[[5-Fluoro-2-methoxy-6-[4-(trifluoromethyl)cyclohexen-1-yl]-3-pyridyl]methyl]pyrrolidine-2-carboxamide] | < 20 nM | > 70% | 5 to 50 L/h/kg |  | 
9 | COc1nc(N[C@H]2CC[C@@H](C(F)(F)F)CC2)c(F)cc1CNC(=O)[C@@H]1CCCN1 [Example 141, (2S)—N-[[5-Fluoro-2-methoxy-6-[[cis-4-(trifluoromethyl)cyclohexyl]amino]-3-pyridyl]methyl]pyrrolidine-2-carboxamide] | < 20 nM | > 70% |  | + (from 50 to 500 l/h/kg) | 
10 | COc1nc(N[C@H]2CC[C@@H](C(F)(F)F)CC2)c(F)cc1CNC(=O)[C@@H]1CCCN1.Cl [Example 142, (2S)—N-[[5-Fluoro-2-methoxy-6-[[cis-4-(trifluoromethyl)cyclohexyl]amino]-3-pyridyl]methyl]pyrrolidine-2-carboxamide Hydrochloride] | < 20 nM |  |  | ++ (from 5 to <50 l/h/kg) | +++ (>70%)
11 | COc1nc(N[C@H]2CC[C@H](C(F)(F)F)CC2)c(F)cc1CNC(=O)[C@@H]1CCCN1 [Example 143, (2S)—N-[[5-Fluoro-2-methoxy-6-[[trans-4-(trifluoromethyl)cyclohexyl]amino]-3-pyridyl]methyl]pyrrolidine-2-carboxamide] | < 20 nM | > 70% |  | + (from 50 to 500 l/h/kg) | 
12 | COc1nc(N[C@H]2CC[C@H](C(F)(F)F)CC2)c(F)cc1CNC(=O)[C@@H]1CCCN1.Cl [Example 144, (2S)—N-[[5-Fluoro-2-methoxy-6-[[trans-4-(trifluoromethyl)cyclohexyl]amino]-3-pyridyl]methyl]pyrrolidine-2-carboxamide Hydrochloride] | 20 to 200 nM |  |  | ++ (from 5 to <50 l/h/kg) | +++ (>70%)
13 | COc1nc(Cc2ccccc2)c(F)cc1CNC(=O)[C@@H]1CCCN1 [Example 145, (2S)—N-[(6-Benzyl-5-fluoro-2-methoxy-3-pyridyl)methyl]pyrrolidine-2-carboxamide] | < 20 nM | > 70% | < 5 L/h/kg |  | 
14 | COc1nc(NC2CCC2)c(F)cc1CNC(=O)[C@@H]1CCCN1 [Example 146, (2S)—N-[[6-(Cyclobutylamino)-5-fluoro-2-methoxy-3-pyridyl]methyl]pyrrolidine-2-carboxamide; 2,2,2-trifluoroacetic Acid] | 20 to 200 nM | > 70% | < 5 L/h/kg |  | 
15 | COc1nc(N(C)C2CC2)c(F)cc1CNC(=O)[C@@H]1CCCN1 [Example 147, (2S)—N-[[6-[N-Cyclopropyl-N-methyl-amino]-5-fluoro-2-methoxy-3-pyridyl]methyl]pyrrolidine-2-carboxamide; 2,2,2-trifluoroacetic Acid] | 200 to 1000 nM | 50 to 70% | 5 to 50 L/h/kg |  | 
16 | C=CCN(Cc1ccccc1)c1nc(OC)c(CNC(=O)[C@@H]2CCCN2)cc1F [Example 150, (2S)—N-[[6-[N-Allyl-N-benzyl-amino]-5-fluoro-2-methoxy-3-pyridyl]methyl]-pyrrolidine-2-carboxamide Hydrochloride] | 20 to 200 nM | > 70% | 5 to 50 L/h/kg |  | 
17 | COc1nc(N2CC(Oc3ccc(Cl)cc3)C2)c(F)cc1CNC(=O)[C@@H]1CCCN1 [Example 151, (2S)—N-[[6-[3-(4-Chlorophenoxy)azetidin-1-yl]-5-fluoro-2-methoxy-3-pyridyl]methyl]pyrrolidine-2-carboxamide; 2,2,2-trifluoroacetic Acid] | 200 to 1000 nM | > 70% | 50 to 500 L/h/kg |  | 
18 | COc1nc(NCC2(C(F)(F)F)CC2)c(F)cc1CNC(=O)[C@@H]1CCCN1 [Example 152, (2S)—N-[[5-Fluoro-2-methoxy-6-[[1-(trifluoromethyl)cyclopropyl]methylamino]-3-pyridyl]methyl]pyrrolidine-2-carboxamide; 2,2,2-trifluoroacetic Acid] | < 20 nM | > 70% | < 5 L/h/kg |  | 
19 | COc1nc(N2CCCC(C(F)(F)F)C2)c(F)cc1CNC(=O)[C@@H]1CCCN1 (stereo partly drawn) [Example 153, (2S)—N-[[5-Fluoro-2-methoxy-6-[3-(trifluoromethyl)-1-piperidyl]-3-pyridyl]methyl]pyrrolidine-2-carboxamide; 2,2,2-trifluoroacetic Acid] | 20 to 200 nM | > 70% | 5 to 50 L/h/kg |  | 
20 | COc1nc(N(C)C2CCC(F)(F)CC2)c(F)cc1CNC(=O)[C@@H]1CCCN1 [Example 154, (2S)—N-[[6-[N-(4,4-Difluorocyclohexyl)-N-methyl-amino]-5-fluoro-2-methoxy-3-pyridyl]methyl]pyrrolidine-2-carboxamide; 2,2,2-trifluoroacetic Acid] | 20 to 200 nM | > 70% | 5 to 50 L/h/kg |  | 
21 | COc1nc(N2CCCCCC2)c(F)cc1CNC(=O)[C@@H]1CCCN1 [Example 155, (2S)—N-[[6-(Azepan-1-yl)-5-fluoro-2-methoxy-3-pyridyl]methyl]pyrrolidine-2-carboxamide; 2,2,2-trifluoroacetic Acid] | 20 to 200 nM | > 70% | 5 to 50 L/h/kg |  | 
22 | COc1nc(N2CCCC(F)(F)C2)c(F)cc1CNC(=O)[C@@H]1CCCN1 [Example 156, (2S)—N-[[6-(3,3-Difluoro-1-piperidyl)-5-fluoro-2-methoxy-3-pyridyl]methyl]-pyrrolidine-2-carboxamide; 2,2,2-trifluoroacetic Acid] | 20 to 200 nM | 50 to 70% | < 5 L/h/kg |  | 
23 | COc1nc(C2CCCOC2)c(F)cc1CNC(=O)[C@@H]1CCCN1 (stereo partly drawn) [Example 158, (2S)—N-[(5-Fluoro-2-methoxy-6-tetrahydropyran-3-yl-3-pyridyl)methyl]-pyrrolidine-2-carboxamide Hydrochloride] | 20 to 200 nM | > 70% | < 5 L/h/kg |  | 
24 | COc1nc(C2CCOCC2)c(F)cc1CNC(=O)[C@@H]1CCCN1 [Example 159, (2S)—N-[(5-Fluoro-2-methoxy-6-tetrahydropyran-4-yl-3-pyridyl)methyl]-pyrrolidine-2-carboxamide Hydrochloride] | 200 to 1000 nM | > 70% | < 5 L/h/kg |  | 
25 | COc1nc(N2CCC(F)CC2)c(F)cc1CNC(=O)[C@@H]1CCCN1 [Example 160, (2S)—N-[[5-Fluoro-6-(4-fluoro-1-piperidyl)-2-methoxy-3-pyridyl]methyl]-pyrrolidine-2-carboxamide; 2,2,2-trifluoroacetic Acid] | 20 to 200 nM | 50 to 70% | < 5 L/h/kg |  | 
